Test results: EP0115547B1 (priority 1983, dated 1984)

Tested on: T7-Phagen
Settings: pH 7

CN(Cc1cnc2nc(N)nc(N)c2n1)c1ccc(C(=O)N[C@@H](CCC(=O)O)C(=O)O)cc1 [4-Desoxy-4-amino-10-methylfolsäure]
Kehrwert der pyrimidin-dimeräquivalenten Dosis: 11 1 Mol . Minute

Cc1ncc(C[n+]2csc(CCO)c2C)c(N)n1 [Vitamin B1]
1n [N(t)/N(O)]=-1 zugehörige Bebrütungs- beziehungsweise Inkubationszeit: 291 Minuten
Kehrwert der pyrimidindimeräquivalenten Dosis: 0,03 l/Mol· Minute
pyrimidindimeräquivalente Dosis: 29 Mol - Minute/I

CS(=O)(=O)OCCNCC(O)C(O)CNCCOS(C)(=O)=O (stereo not shown) [1,4-Di-{2'-(methylsulfonyl)-oxy-äthylamino}-1,4-di-{desoxy}-ery-thrit-dimethylsulfat]
Kehrwert der pyrimidin-dimeräquivalenten Dosis: 111 1 Mol . Minute

CN(N=O)C(N)=O [Nitrosomethylharnstoff]
Kehrwert der pyrimidin-dimeräquivalenten Dosis: 0,76 1 Mol . Minute

CC(=O)N1CC1 [N-(Acetyl)-äthylenimin]
Kehrwert der pyrimidin-dimeräquivalenten Dosis: 33 1 Mol . Minute
